Test system: Magnaporthe grisea (Pyricularia oryzae—PYRIOR)
Assay: microbe, parasite or virus in culture
Assay type: cell-based
Conditions: Pyricularia oryzae, read-out: PYRIOR in vitro Growth Inhibition

| Compound | inhibition at 25 ppm |
| --- | --- |
| Cc1ccc(C(=O)N[C@H]2COC(=O)[C@H](Cc3ccccc3)[C@@H](OC(=O)C(C)C)[C@H](C)OC2=O)c(O)n1 [Compound 525] | < 80% |
| COc1ccnc(C(=O)Nc2ccc(Sc3cccc(C(F)(F)F)c3)cc2)c1OC(C)=O [Compound 711] | > 80% |
| COc1cccc(CNC(=O)c2ncccc2O)c1OC [Compound 227] | < 80% |

Test system: Rhizoctonia solani (RHIZSO)
Assay: microbe, parasite or virus in culture
Assay type: cell-based
Conditions: Rhizoctonia solani, read-out: RHIZSO in vitro Growth Inhibition

| Compound | inhibition at 25 ppm |
| --- | --- |
| Cc1ccc(C(=O)N[C@H]2COC(=O)[C@H](Cc3ccccc3)[C@@H](OC(=O)C(C)C)[C@H](C)OC2=O)c(O)n1 [Compound 525] | < 80% |
| COc1ccnc(C(=O)Nc2ccc(Sc3cccc(C(F)(F)F)c3)cc2)c1OC(C)=O [Compound 711] | < 80% |
| COc1cccc(CNC(=O)c2ncccc2O)c1OC [Compound 227] | < 80% |

Test system: Mycosphaerella graminicola (Septoria tritici—SEPTTR)
Assay: In vitro fungal growth inhibition, Mycosphaerella graminicola (SEPTTR)
Assay type: cell-based
Conditions: Zymoseptoria tritici; 25 ppm in growth medium; read-out: SEPTTR in vitro Growth Inhibition

| Compound | inhibition at 25 ppm |
| --- | --- |
| COc1ccnc(C(=O)Nc2ccc(Sc3cccc(C(F)(F)F)c3)cc2)c1OC(C)=O [Compound 711] | > 80% |
| COc1cccc(CNC(=O)c2ncccc2O)c1OC [Compound 227] | < 80% |

Same assay, conditions: Zymoseptoria tritici; 25 ppm in the growth medium; read-out: SEPTTR in vitro Growth Inhibition

| Compound | inhibition at 25 ppm |
| --- | --- |
| Cc1ccc(C(=O)N[C@H]2COC(=O)[C@H](Cc3ccccc3)[C@@H](OC(=O)C(C)C)[C@H](C)OC2=O)c(O)n1 [Compound 525] | < 80% |

Test system: Stagonospora nodorum (Leptosphaeria nodorum—LEPTNO)
Assay: In vitro fungal growth inhibition, Stagonospora nodorum (LEPTNO)
Assay type: cell-based
Conditions: Leptosphaeria; 25 ppm in growth medium; read-out: LEPTNO in vitro Growth Inhibition

| Compound | inhibition at 25 ppm |
| --- | --- |
| COc1ccnc(C(=O)Nc2ccc(Sc3cccc(C(F)(F)F)c3)cc2)c1OC(C)=O [Compound 711] | > 80% |
| COc1cccc(CNC(=O)c2ncccc2O)c1OC [Compound 227] | < 80% |

Same assay, conditions: Leptosphaeria; 25 ppm in the growth medium; read-out: LEPTNO in vitro Growth Inhibition

| Compound | inhibition at 25 ppm |
| --- | --- |
| Cc1ccc(C(=O)N[C@H]2COC(=O)[C@H](Cc3ccccc3)[C@@H](OC(=O)C(C)C)[C@H](C)OC2=O)c(O)n1 [Compound 525] | < 80% |

Test system: Ustilago maydis (USTIMA)
Assay: microbe, parasite or virus in culture
Assay type: cell-based
Conditions: Mycosarcoma maydis, read-out: USTIMA in vitro Growth Inhibition

| Compound | inhibition at 25 ppm |
| --- | --- |
| Cc1ccc(C(=O)N[C@H]2COC(=O)[C@H](Cc3ccccc3)[C@@H](OC(=O)C(C)C)[C@H](C)OC2=O)c(O)n1 [Compound 525] | < 80% |
| COc1ccnc(C(=O)Nc2ccc(Sc3cccc(C(F)(F)F)c3)cc2)c1OC(C)=O [Compound 711] | < 80% |
| COc1cccc(CNC(=O)c2ncccc2O)c1OC [Compound 227] | < 80% |

Test system: Phytophthora infestans (PHYTIN)
Assay: microbe, parasite or virus in culture
Assay type: cell-based
Conditions: Phytophthora infestans, read-out: PHYTIN in vitro Growth Inhibition

| Compound | inhibition at 25 ppm |
| --- | --- |
| Cc1ccc(C(=O)N[C@H]2COC(=O)[C@H](Cc3ccccc3)[C@@H](OC(=O)C(C)C)[C@H](C)OC2=O)c(O)n1 [Compound 525] | < 80% |
| COc1ccnc(C(=O)Nc2ccc(Sc3cccc(C(F)(F)F)c3)cc2)c1OC(C)=O [Compound 711] | < 80% |
| COc1cccc(CNC(=O)c2ncccc2O)c1OC [Compound 227] | > 80% |

Test system: Phytophthora infestans—PHYTIN
Assay: whole plant or invertebrate
Assay type: in vivo
Conditions: Phytophthora, in Solanum lycopersicum, 24 h, read-out: PHYTIN in vivo 1 Day Protectant

| Compound | pest or weed control at 100 ppm |
| --- | --- |
| Cc1ccc(C(=O)N[C@H]2COC(=O)[C@H](Cc3ccccc3)[C@@H](OC(=O)C(C)C)[C@H](C)OC2=O)c(O)n1 [Compound 525] | < 25% |
| COc1ccnc(C(=O)Nc2ccc(Sc3cccc(C(F)(F)F)c3)cc2)c1OC(C)=O [Compound 711] | < 25% |
| COc1cccc(CNC(=O)c2ncccc2O)c1OC [Compound 227] | < 25% |

Test system: Puccinia recondita—PUCCRT
Assay: Brown Rust of Wheat, in vivo whole plant, 24 Hour Protectant
Conditions: Puccinia; 100 ppm spray, 24 hour protectant, wheat; control of fungal infection vs untreated plants; read-out: PUCCRT in vivo 1 Day Protectant

| Compound | pest or weed control at 100 ppm |
| --- | --- |
| COc1cccc(CNC(=O)c2ncccc2O)c1OC [Compound 227] | < 25% |

Same assay, conditions: Puccinia; 100 ppm spray, wheat, 24 hour protectant, % control of fungal infection vs untreated plants; read-out: PUCCRT in vivo 1 Day Protectant

| Compound | pest or weed control at 100 ppm |
| --- | --- |
| COc1ccnc(C(=O)Nc2ccc(Sc3cccc(C(F)(F)F)c3)cc2)c1OC(C)=O [Compound 711] | < 25% |

Same assay, conditions: Puccinia; wheat plants sprayed at 100 ppm, inoculated after 24 hours; control of fungal infection vs untreated plants; read-out: PUCCRT in vivo 1 Day Protectant

| Compound | pest or weed control at 100 ppm |
| --- | --- |
| Cc1ccc(C(=O)N[C@H]2COC(=O)[C@H](Cc3ccccc3)[C@@H](OC(=O)C(C)C)[C@H](C)OC2=O)c(O)n1 [Compound 525] | 25 to 74% |

Test system: Erysiphe graminis—ERYSGT
Assay: Powdery Mildew of Wheat, in vivo whole plant, 24 Hour Protectant
Conditions: Erysiphe; 100 ppm spray, 24 hour protectant, wheat; control of fungal infection vs untreated plants; read-out: ERYSGT in vivo 1 Day Protectant

| Compound | pest or weed control at 100 ppm |
| --- | --- |
| COc1cccc(CNC(=O)c2ncccc2O)c1OC [Compound 227] | < 25% |

Same assay, conditions: Erysiphe; 100 ppm spray, wheat, 24 hour protectant, % control of fungal infection vs untreated plants; read-out: ERYSGT in vivo 1 Day Protectant

| Compound | pest or weed control at 100 ppm |
| --- | --- |
| COc1ccnc(C(=O)Nc2ccc(Sc3cccc(C(F)(F)F)c3)cc2)c1OC(C)=O [Compound 711] | < 25% |

Same assay, conditions: Erysiphe; wheat plants sprayed at 100 ppm, inoculated after 24 hours; control of fungal infection vs untreated plants; read-out: ERYSGT in vivo 1 Day Protectant

| Compound | pest or weed control at 100 ppm |
| --- | --- |
| Cc1ccc(C(=O)N[C@H]2COC(=O)[C@H](Cc3ccccc3)[C@@H](OC(=O)C(C)C)[C@H](C)OC2=O)c(O)n1 [Compound 525] | < 25% |

Test system: Septoria tritici—SEPTTR
Assay: Leaf Blotch of Wheat, in vivo whole plant, 24 Hour Protectant
Conditions: 100 ppm spray, wheat, 24 hour protectant, % control of fungal infection vs untreated plants

| Compound | SEPTTR in vivo 1 Day Protectant |
| --- | --- |
| COc1ccnc(C(=O)Nc2ccc(Sc3cccc(C(F)(F)F)c3)cc2)c1OC(C)=O [Compound 711] | + + |

Same assay, conditions: Zymoseptoria tritici, 24 h, 100 ppm spray, 24 hour protectant, wheat; control of fungal infection vs untreated plants; read-out: SEPTTR in vivo 1 Day Protectant

| Compound | pest or weed control at 100 ppm |
| --- | --- |
| COc1cccc(CNC(=O)c2ncccc2O)c1OC [Compound 227] | < 25% |

Same assay, conditions: Zymoseptoria tritici, 24 h, wheat plants sprayed at 100 ppm, inoculated after 24 hours; control of fungal infection vs untreated plants; read-out: SEPTTR in vivo 1 Day Protectant

| Compound | pest or weed control at 100 ppm |
| --- | --- |
| Cc1ccc(C(=O)N[C@H]2COC(=O)[C@H](Cc3ccccc3)[C@@H](OC(=O)C(C)C)[C@H](C)OC2=O)c(O)n1 [Compound 525] | 25 to 74% |

Test system: Leptosphaeria nodorum—LEPTNO
Assay: Glume Blotch of Wheat, in vivo whole plant, 24 Hour Protectant
Conditions: Leptosphaeria; 100 ppm spray, 24 hour protectant, wheat; control of fungal infection vs untreated plants; read-out: LEPTNO in vivo 1 Day Protectant

| Compound | pest or weed control at 100 ppm |
| --- | --- |
| COc1cccc(CNC(=O)c2ncccc2O)c1OC [Compound 227] | < 25% |

Same assay, conditions: Leptosphaeria; 100 ppm spray, wheat, 24 hour protectant, % control of fungal infection vs untreated plants; read-out: LEPTNO in vivo 1 Day Protectant

| Compound | pest or weed control at 100 ppm |
| --- | --- |
| COc1ccnc(C(=O)Nc2ccc(Sc3cccc(C(F)(F)F)c3)cc2)c1OC(C)=O [Compound 711] | 25 to 74% |

Same assay, conditions: wheat plants sprayed at 100 ppm, inoculated after 24 hours; control of fungal infection vs untreated plants

| Compound | LEPTNO in vivo 1 Day Protectant |
| --- | --- |
| Cc1ccc(C(=O)N[C@H]2COC(=O)[C@H](Cc3ccccc3)[C@@H](OC(=O)C(C)C)[C@H](C)OC2=O)c(O)n1 [Compound 525] | + + |

Test system: not given
Assay: not given
Conditions: not given

| Compound | melting point |
| --- | --- |
| Cc1ccc(C(=O)N[C@H]2COC(=O)[C@H](Cc3ccccc3)[C@@H](OC(=O)C(C)C)[C@H](C)OC2=O)c(O)n1 [Compound 525] | 247 to 250 °C |
| COc1ccnc(C(=O)Nc2ccc(Sc3cccc(C(F)(F)F)c3)cc2)c1OC(C)=O [Compound 711] | 134 to 136 °C |
| COc1cccc(CNC(=O)c2ncccc2O)c1OC [Compound 227] | 78 to 79 °C |

From US6706740B2, “Fungicidal heterocyclic aromatic amides and their compositions, methods of use and preparation” (Dow AgroSciences LLC, priority 1999, dated 2004)
